What all share (assay type): in vivo
The test system of one series is Nilaparvata lugens. In words: Rice brown plant hopper (Nilaparvata lugens) on sprayed rice seedlings. Conditions: 100 ppm; after 72 hours. As for the experimental part: B.9 Rice Brown Plant Hopper (Nilaparvata lugens)
Rice seedlings were cleaned and washed 24 hours before spraying. The active compounds were formulated in 1:1 acetone:water (vol:vol) and 0.01% vol/vol surfactant (Kinetic HV) was added. Potted rice seedlings were sprayed with 5 ml test solution, air dried, covered with Mylar cages and inoculated with 10 adults. Treated rice plants were kept at about 28-29° C. and relative humidity of about 50-60%. Percent mortality was recorded after 72 hours.

A further series relates to Ceratitis capitata. In words: Mediterranean fruitfly (Ceratitis capitata) control, microtiter plates with insect diet and eggs. As to conditions: 120 h, read-out: mortality in comparison with untreated controls. As for the experimental part: B.5 Mediterranean Fruitfly (Ceratitis capitata)
For evaluating control of Mediterranean fruitfly (Ceratitis capitata) the test unit consisted of microtiter plates containing an insect diet and 50-80 C. capitata eggs.
The compounds were formulated using a solution containing 75% v/v water and 25% v/v DMSO. Different concentrations of formulated compounds were sprayed onto the insect diet at 5 μl, using a custom built micro atomizer, at two replications.
After application, microtiter plates were incubated at about 28±1° C. and about 80±5% relative humidity for 5 days. Egg and larval mortality was then visually assessed.

In the next series the test system is Aphis craccivora. In words: Cowpea aphid (Aphis craccivora) on sprayed cowpea plants. Conditions: 72 h, read-out: mortality in comparison with untreated controls. As for the experimental part:
B.3 Cowpea Aphid (Aphis craccivora)
The active compound is dissolved at the desired concentration in a mixture of 1:1 (vol:vol) distilled water:acetone. Surfactant (Kinetic HV) is added at a rate of 0.01% (vol/vol). The test solution is prepared at the day of use.
Potted cowpea plants were colonized with approximately 50-100 aphids of various stages by manually transferring a leaf tissue cut from infested plant 24 hours before application. Plants were sprayed after the pest population has been recorded. Treated plants are maintained on light carts at about 28° C. Percent mortality was assessed after 72 hours.

In a further series the test system is Myzus persicae. The experiment in a line: Green peach aphid (Myzus persicae) through systemic means, artificial diet under membrane in microtiter plates. Conditions: 72 h, read-out: mortality in comparison with untreated controls. From the text:
For evaluating control of green peach aphid (Myzus persicae) through systemic means the test unit consisted of 96-well-microtiter plates containing liquid artificial diet under an artificial membrane.
The compounds were formulated using a solution containing 75% v/v water and 25% v/v DMSO. Different concentrations of formulated compounds were pipetted into the aphid diet, using a custom built pipetter, at two replications.
After application, 5-8 adult aphids were placed on the artificial membrane inside the microtiter plate wells. The aphids were then allowed to suck on the treated aphid diet and incubated at about 23±1° C. and about 50±5% relative humidity for 3 days. Aphid mortality and fecundity was then visually assessed.

For another series, the system named is Aedes aegypti. In words: whole plant or invertebrate. Conditions: 48 h, larval mortality after 2 days, read-out: mortality in comparison with untreated controls. Here is the method:
B.11 Yellow Fever Mosquito (Aedes aegypti)
For evaluating control of yellow fever mosquito (Aedes aegypti) the test unit consisted of 96-well-microtiter plates containing 200 μl of tap water per well and 5-15 freshly hatched A. aegypti larvae.
The active compounds were formulated using a solution containing 75% (v/v) water and 25% (v/v) DMSO. Different concentrations of formulated compounds or mixtures were sprayed onto the insect diet at 2.5 μl, using a custom built micro atomizer, at two replications.
After application, microtiter plates were incubated at 28+1° C., 80+5% RH for 2 days. Larval mortality was then visually assessed.

For another series, the system named is Nephotettix virescens. In words: Rice green leafhopper (Nephotettix virescens) on sprayed rice seedlings. Conditions: 72 h, read-out: mortality in comparison with untreated controls. As for the experimental part: B.7 Rice Green Leafhopper (Nephotettix virescens)
Rice seedlings were cleaned and washed 24 hours before spraying. The active compounds were formulated in 1:1 acetone:water (vol:vol), and 0.01% vol/vol surfactant (Kinetic HV) was added. Potted rice seedlings were sprayed with 5-6 ml test solution, air dried, covered with Mylar cages cages and inoculated with 10 adults. Treated rice plants were kept at about 28-29° C. and relative humidity of about 50-60%. Percent mortality was recorded after 72 hours.

The next series relates to Megoura viciae. The experiment in a line: Vetch aphid (Megoura viciae) through contact or systemic means, broad bean leaf disks. As to conditions: foliar, 120 h, read-out: mortality in comparison with untreated controls. As for the experimental part: B.10 Vetch Aphid (Megoura viciae)
For evaluating control of vetch aphid (Megoura viciae) through contact or systemic means the test unit consisted of 24-well-microtiter plates containing broad bean leaf disks.
The compounds were formulated using a solution containing 75% v/v water and 25% v/v DMSO. Different concentrations of formulated compounds were sprayed onto the leaf disks at 2.5 μl, using a custom built micro atomizer, at two replications.
After application, the leaf disks were air-dried and 5-8 adult aphids placed on the leaf disks inside the microtiter plate wells. The aphids were then allowed to suck on the treated leaf disks and incubated at about 23±1° C. and about 50±5% relative humidity for 5 days. Aphid mortality and fecundity was then visually assessed.

Each structure is given as a SMILES string.

For `O=C(NCC(F)(F)F)NN=c1ccccn1Cc1ccc(Cl)nc1` [IB.1-3], the “mortality in comparison with untreated controls” value in the series on Nilaparvata lugens is “at least 75%”.

By mortality is commonly meant the share of the test organisms that died. Turning to `CNC(=O)NN=c1ccccn1Cc1ccc(Cl)nc1` (mixture of isomers) [IB.1-1, 1-[(E/Z)-[1-[(6-chloro-3-pyridyl)methyl]-2-pyridylidene]amino]-3-methyl-urea], the mortality at 2500 ppm in the series on Ceratitis capitata, with Myzus persicae, with Aedes aegypti and in the series on Megoura viciae was no less than 75% throughout. Further, the mortality at 500 ppm in the series with Aphis craccivora and in the series with Nephotettix virescens was no less than 75% each time.

On to `CO/N=C/C(=O)ON=c1ccccn1Cc1cnc(Cl)s1` (mixture of isomers) [IA.1-4, [(E/Z)-[1-[(2-chlorothiazol-5-yl)methyl]-2-pyridylidene]amino] (2E/Z)-2-methoxyimino-acetate], for which the mortality at 2500 ppm in the series on Myzus persicae, with Aedes aegypti and in the series with Megoura viciae was no less than 75% in each case.
